Test results taken from PubChem BioAssay (NCI).
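Protocol summary: plate cells (96-well), add compound at 5 concentrations, incubate 48 h, interpolate endpoints linearly. The concentration for 50% growth inhibition is given as GI50. The concentration for full growth arrest is given as TGI.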

Key:
Test in all cases: DTP human tumour cell line panel, 48 h
NCI-H460 lung = system: NCI-H460 lung
786-0 renal = system: 786-0 renal
COLO 205 colon = system: COLO 205 colon
OVCAR-8 ovarian = system: OVCAR-8 ovarian
UO-31 renal = system: UO-31 renal
NCI-H522 lung = system: NCI-H522 lung
M14 melanoma = system: M14 melanoma
MDA-MB-435 = system: MDA-MB-435

## CCc1ccc(-c2ccc(=O)n(-c3ccc(S(N)(=O)=O)cc3)n2)cc1
NCI-H460 lung
  GI50: 970 nM
  TGI: > 21.2 µM
786-0 renal
  GI50: 11700 nM
  TGI: > 79.8 µM
COLO 205 colon
  GI50: 1950 nM
  TGI: > 55.6 µM
OVCAR-8 ovarian
  GI50: 11000 nM
  TGI: > 100 µM
UO-31 renal
  GI50: > 100000 nM
  TGI: > 100 µM
NCI-H522 lung
  GI50: 182 nM
  TGI: 4180 nM
M14 melanoma
  GI50: 764 nM
  TGI: > 22.2 µM
MDA-MB-435
  GI50: 252 nM
  TGI: 1.71 µM

## C[C@@H]1COCCN1c1nc(-c2cnc(N)cc2C(F)F)nc(N2[C@H](C)COC[C@@H]2C)n1
NCI-H460 lung
  GI50: 179 nM
  TGI: 12.1 µM
786-0 renal
  GI50: 272 nM
  TGI: 12.5 µM
COLO 205 colon
  GI50: 371 nM
  TGI: 12.5 µM
OVCAR-8 ovarian
  GI50: 367 nM
  TGI: 21.4 µM
UO-31 renal
  GI50: 57.5 nM
  TGI: 11 µM
NCI-H522 lung
  GI50: 267 nM
  TGI: 12800 nM
M14 melanoma
  GI50: 300 nM
  TGI: 11.7 µM
MDA-MB-435
  GI50: 321 nM
  TGI: 10.6 µM

## OCc1cccc(-c2ccc3ncc(-c4nc(NC5CC5)ncc4F)n3c2)c1
NCI-H460 lung
  GI50: 249 nM
  TGI: 0.825 µM
786-0 renal
  GI50: 347 nM
  TGI: 3.03 µM
COLO 205 colon
  GI50: 242 nM
  TGI: 0.656 µM
OVCAR-8 ovarian
  GI50: 301 nM
  TGI: > 100 µM
UO-31 renal
  GI50: 300 nM
  TGI: 1 µM
NCI-H522 lung
  GI50: 316 nM
  TGI: 2340 nM
M14 melanoma
  GI50: 328 nM
  TGI: 1.15 µM
MDA-MB-435
  GI50: 284 nM
  TGI: 0.919 µM

## C=C1C(=O)O[C@H]2[C@H]1CC/C(CNC(=O)/C=C/c1cccc(OC)c1)=C\CC[C@@]1(C)O[C@@H]21
NCI-H460 lung
  GI50: 2510 nM
  TGI: 7.05 µM
786-0 renal
  GI50: 1540 nM
  TGI: 3.58 µM
COLO 205 colon
  GI50: 1340 nM
  TGI: 2.85 µM
OVCAR-8 ovarian
  GI50: 2190 nM
  TGI: 8.07 µM
UO-31 renal
  GI50: 1290 nM
  TGI: 2.61 µM
NCI-H522 lung
  GI50: 435 nM
  TGI: 1770 nM
M14 melanoma
  GI50: 1420 nM
  TGI: 3.11 µM
MDA-MB-435
  GI50: 1530 nM
  TGI: 5.04 µM

## COc1cc([C@@H]2c3cc4c(cc3C(Br)[C@H]3COC(=O)[C@H]23)OCO4)cc(OC)c1OC (some centres undefined)
NCI-H460 lung
  GI50: 204 nM
  TGI: 0.547 µM
786-0 renal
  GI50: 307 nM
  TGI: 33.8 µM
COLO 205 colon
  GI50: 189 nM
  TGI: 0.399 µM
OVCAR-8 ovarian
  GI50: 310 nM
UO-31 renal
  GI50: 418 nM
  TGI: > 100 µM
NCI-H522 lung
  GI50: 72 nM
  TGI: 389 nM
M14 melanoma
  GI50: 220 nM
MDA-MB-435
  GI50: 36.5 nM

## CCCCCCOc1ccc(/C=N/NC(N)=S)cc1
NCI-H460 lung
  GI50: 10200 nM
  TGI: > 100 µM
786-0 renal
  GI50: 1740 nM
  TGI: 6.05 µM
COLO 205 colon
  GI50: 7210 nM
  TGI: 48.5 µM
OVCAR-8 ovarian
  GI50: 7690 nM
  TGI: > 100 µM
UO-31 renal
  GI50: 822 nM
  TGI: 3.66 µM
NCI-H522 lung
  GI50: 421 nM
  TGI: 1760 nM
M14 melanoma
  GI50: 2540 nM
  TGI: 12.1 µM
MDA-MB-435
  GI50: 1840 nM
  TGI: 7.56 µM

## N#Cc1cccc(C(=O)c2cnn(-c3ccc(F)cc3)c2N)c1
NCI-H460 lung
  GI50: > 25000 nM
  TGI: > 25 µM
786-0 renal
  GI50: > 25000 nM
  TGI: > 25 µM
COLO 205 colon
  GI50: > 25000 nM
  TGI: > 25 µM
OVCAR-8 ovarian
  GI50: > 25000 nM
  TGI: > 25 µM
UO-31 renal
  GI50: > 25000 nM
  TGI: > 25 µM
NCI-H522 lung
  GI50: > 25000 nM
  TGI: > 25000 nM
M14 melanoma
  GI50: > 25000 nM
  TGI: > 25 µM
MDA-MB-435
  GI50: > 25000 nM
  TGI: > 25 µM
